Data published in patent US10457947B2, “Targeting of human glucocorticoid receptor beta in cancer” (The University of Toledo, priority 2016, dated 2019).

Key:
[1] = tested on: human GRβ mRNA; assay: GRβ mRNA expression by Real-Time PCR in T24 cells; assay type: cell-based
Procedure: The human uroepithelial carcinoma cell lines UMUC-3 and T24 (ATCC) were routinely cultured and maintained in Minimum Essential Medium (MEM) containing 10% fetal bovine serum (FBS) with 1% antibiotic-antimycotic. Cells were maintained at 37° C. and 5% CO2. Media was changed to MEM containing 10% Dialyzed-FBS with 1% antibiotic antimycotic 24 hours before hormone treatments.
A peptide nucleic acid (PNA) (Sweet-P) conjugated to a cell penetrating peptide (CPP) targeting the miR144 binding site in the 3′UTR of the human GRβ was designed using the PANAGENE® website (www.panagene.com). The Sweet-P targeting sequence was: (TGCCATACACAGTAT) [SEQ ID NO:1]. The Sweet-P sequence targeted the miR144 binding site in the 3′ UTR of human GRβ. (FIG. 7.) All PNAs were attached to an O-linker and a modified tat protein (VQRKRQKLMP) [SEQ ID NO:2] for delivery into the cell. Treatment with Sweet-P was performed for 48 hrs before the cells were analyzed.

[2] = tested on: T24 bladder cancer cells; assay: Scratch (wounding) migration assay in T24 cells; assay type: cell-based, human
Procedure: Cells were seeded on a 6-well plate and grown for 24 hours until a monolayer of 90% confluent cells was obtained. A scratch wound in the cell monolayer was introduced using a sterile pipette tip. Images were taken at the time of wounding, and every 5 hours thereafter. Migration was measured as the fold change of the width of the wound remaining. To determine miRNA and mRNA expression during the scratch (wounding assay), total RNA was collected using the miRNeasy® Mini Kit (Qiagen) (described above) at 0 and 3 hours after the migration.

[3] = tested on: E006AA cell lines; assay: Migration of E006AA-Par and E006AA-hT prostate cancer cells; assay type: cell-based, human
Description: FIG. 15: Lentiviral shRNA suppression of human GRβ in E006AA-Par and E006AA-hT prostate cancer cells suppresses migration. *, P<0.05 and **, P<0.01 (scramble vs GRβ KD). N=12.

[4] = tested on: 3′UTR of human GRβ; assay: 3′UTR GRβ-Luc luciferase reporter assay in T24 cells; assay type: cell-based; conditions: Sweet-P at 0.1 nM, 1.0 nM, and 10 nM, 48 hours, versus 0 nM
Procedure: For transient transfection, cells were plated on a 6-well or 12-well dish in MEM containing 10% FBS. Cells were washed with OPTI-MEM and transfected using GeneFect® (Alkali Scientific, Inc.), according to the manufacturer's […] protocol. OPTI-MEM was removed after 12 h and MEM containing 10% FBS was added.
The expression vector pMirTarget containing the 3′UTR of hGRβ (hGRβ 3′UTR-luc) was purchased from Origene. The binding sites were mutated using the QuikChange Lightning Multi Site-Directed Mutagenesis Kits® (Agilent Technologies). Successful mutations were confirmed through sequencing by Operon MWG. Cells were seeded onto a 12-well plate and grown overnight. Transient transfection was performed as described above. To determine the effect of Sweet-P on the T24 bladder cancer cells, the cells were treated 24 h after transfection for 48 hours post transfection, 3′UTR GRβ-Luc WT or mutant expression was measured by luciferase, and pRL-CMV Renilla reporter for normalization to transfection efficiency, using the Promega dual luciferase assay system (Promega, Madison, Wis.).
A peptide nucleic acid (PNA) (Sweet-P) conjugated to a cell penetrating peptide (CPP) targeting the miR144 binding site in the 3′UTR of the human GRβ was designed using the PANAGENE® website (www.panagene.com). […] Treatment with Sweet-P was performed for 48 hrs before the cells were analyzed.

[5] = tested on: GRβ; assay: Immunofluorescence of GRβ in T24 cells; assay type: cell-based, human
[6] = tested on: GRα; assay: Immunofluorescence of GRα in T24 cells; assay type: cell-based, human
Procedure: (§1) FIGS. 3A-3D: Dexamethasone and insulin treatment in T24 cells (FIGS. 3A-3B) and UMUC-3 cells (FIGS. 3C-3D). GRβ and GRα expression and location were measured using immunofluorescence with control (vehicle treatment), dexamethasone, or insulin treatments. Cells were seeded onto coverslips in media containing 10% dialyzed FBS for 24 hours before treating. Cells were treated with 100 nM insulin, 100 nM dexamethasone, or vehicle for 30 minutes. Secondary antibodies (labeling of human GRα or GRβ) are shown in green, DAPI (nuclei labeling) are shown in blue, a merge of the green and blue images are shown in panel 3 to represent localization, and a bright field image is shown in gray (scale bar=25 μm).
Cells were seeded onto a glass coverslip placed in a 6-well plate and grown were grown to desired confluence. Cells were then fixed with 3% paraformaldehyde, permeated with PBS containing 0.25% Triton X (PBST), and blocked with PBST containing 1% BSA. Slides were then stained with either anti-hGRα Rabbit IgG or anti-hGRβ Rabbit IgG antibodies obtained from Antibody Research. Secondary staining was performed using anti-Rb IgG 488 antibody from Life Technologies. Coverslips were planted onto slides with Fluoromount-G®, and DAPI was added to stain nuclei. Slides were magnified using a Leica Microscope with a 63X oil Immersion lens. […]

[7] = biological target: T1, GRα (Homo sapiens, UniProt P04150); assay: GRα controlled gene expression by Real-Time PCR in T24 cells; assay type: cell-based; conditions: Sweet-P 48 hours then 2 hours of dexamethasone
T1 construct: endogenous in cells; host or cells: T24 human uroepithelial carcinoma cells (ATCC)
T1 sequence (P04150 1-777): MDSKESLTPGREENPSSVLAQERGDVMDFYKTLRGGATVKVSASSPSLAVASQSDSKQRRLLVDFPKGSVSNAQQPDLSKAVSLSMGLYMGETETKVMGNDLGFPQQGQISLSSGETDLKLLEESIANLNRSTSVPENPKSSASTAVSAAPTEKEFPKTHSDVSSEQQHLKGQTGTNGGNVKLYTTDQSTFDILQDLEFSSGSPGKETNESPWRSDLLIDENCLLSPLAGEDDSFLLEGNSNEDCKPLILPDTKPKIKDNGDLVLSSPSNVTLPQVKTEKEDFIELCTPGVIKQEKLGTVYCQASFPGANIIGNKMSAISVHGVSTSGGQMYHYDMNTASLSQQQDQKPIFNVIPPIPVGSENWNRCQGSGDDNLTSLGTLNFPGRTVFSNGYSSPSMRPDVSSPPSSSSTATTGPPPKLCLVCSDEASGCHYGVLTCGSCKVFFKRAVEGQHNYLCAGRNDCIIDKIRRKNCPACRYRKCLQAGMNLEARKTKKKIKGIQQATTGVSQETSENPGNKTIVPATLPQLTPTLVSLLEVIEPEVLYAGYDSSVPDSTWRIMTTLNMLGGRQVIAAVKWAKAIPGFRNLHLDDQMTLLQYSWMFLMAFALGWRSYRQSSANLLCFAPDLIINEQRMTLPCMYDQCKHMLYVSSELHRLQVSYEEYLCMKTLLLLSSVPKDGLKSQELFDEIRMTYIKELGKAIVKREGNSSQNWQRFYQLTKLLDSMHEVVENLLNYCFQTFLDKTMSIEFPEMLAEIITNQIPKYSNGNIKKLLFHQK
Procedure: GRα controlled gene response was measured by Real-Time PCR for FKBP51, GILZ, p21, VEGFA, GRα, and GRβ. Cells were seeded in media containing 10% dialyzed FBS for 24 hours before treatment.
Total RNA was extracted from cell cultures using the 5-Prime PerfectPure® RNA Cell Kit (Fisher Scientific Company, LLC). Total RNA was read on a NanoDrop 2000® spectrophotometer (ThermoFisher Scientific, Wilmington, Del.) and cDNA was synthesized using High Capacity cDNA Reverse Transcription Kit (Applied Biosystems). PCR amplification of the cDNA was performed by quantitative real-time PCR using TrueAmp SYBR Green qPCR SuperMix® (Smart Bioscience). The thermocycling protocol consisted of 10 min at 95° C., 40 cycles of 15 sec at 95° C., 30 sec at 60° C., and 20 sec at 72° C., and finished with a melting curve ranging from 60-95° C. to allow distinction of specific products. Normalization was performed in separate reactions with primers to GAPDH.

[8] = tested on: mTOR; assay: Immunostaining of mTOR in T24 cells; assay type: cell-based, human; conditions: 10 nM Sweet-P, 48 hours
[9] = tested on: PTEN; assay: Immunostaining of PTEN in T24 cells; assay type: cell-based, human; conditions: 10 nM Sweet-P, 48 hours
[10] = tested on: GRβ; assay: GRβ expression in A549 lung cancer cells; assay type: cell-based, human
Description: (§2) FIG. 10: Sweet-P blocks GRβ expression in lung and prostate cancer cells.

[11] = tested on: GRβ; assay: GRβ expression in E006AA-Par prostate cancer cells; assay type: cell-based, human
Description: as §2

[12] = tested on: GRβ; assay: Immunofluorescence of GRβ in UMUC-3 cells; assay type: cell-based, human; conditions: 100 nM, 30 minutes
Procedure: as §1, with “Cells were seeded onto coverslips in media containing 10% dialyzed FBS for 24 hours before treating.” left out
(§3) Cells were seeded onto a glass coverslip placed in a 6-well plate and grown were grown to desired confluence. […] Slides were then stained with either anti-hGRα Rabbit IgG or anti-hGRβ Rabbit IgG antibodies obtained from Antibody Research. […] Coverslips were planted onto slides with Fluoromount-G®, and DAPI was added to stain nuclei. Slides were magnified using a Leica Microscope with a 63X oil Immersion lens. Images were acquired in the XYZ plane in 1 μm steps with a 63X oil objective (NA 1.40). Images were acquired with the LAS AF® software in sequential scan mode. AlexaFluor488® was excited at 488 nm with collection at 500-558 nm and DAPI was excited with the multi-photon (MP) laser tuned to 790 nm with collection at 420-500 nm. Images are 2D projections of the of image stack as labeled. […]

[13] = tested on: GRα; assay: Immunofluorescence of GRα in UMUC-3 cells; assay type: cell-based, human; conditions: 100 nM, 30 minutes, versus vehicle
Procedure: as §1, with “Cells were seeded onto coverslips in media containing 10% dialyzed FBS for 24 hours before treating.” left out
as §3

[14] = tested on: T24 cells; assay: miRNA expression by Real-Time PCR in T24 cells; assay type: cell-based, human; conditions: 100 nM Insulin, 2 hours
Procedure: FIGS. 8A-8B: […] ANOVA p<0.001; Bonferoni comparisons ***, […]=6). […] Total RNA was extracted from cell cultures using the miRNeasy® Mini Kit (Qiagen). […] The miScript Primer Assay® primers were purchased from Qiagen. Normalization was performed in separate reactions with primers to Hs_RNU6-2_11, At_U19_1, and Hs_SNORD61_11. The cloning vector pCMV-MIR containing the miR144 sequence was purchased from Origene. Cells were seeded on a 6-well plate, and transient transfection of the plasmid was completed as described above. After 48 hours-post transfection, RNA was harvested.

[15] = tested on: UMUC-3 cells; assay: miRNA expression by Real-Time PCR in UMUC-3 cells; assay type: cell-based, human; conditions: 100 nM Insulin, 2 hours
Procedure: FIGS. 8A-8B: The effect of dexamethasone treatment on cell migration and miRNA expression in UMUC-3 and T24 bladder cancer cells. Migration was measured in the UMUC-3 and T24 cells that were treated with either vehicle or 100 nM dexamethasone for 30 minutes prior to wounding, and is presented as the fold-change in the wound width remaining (FIG. 8A). Images of the migration assay at […] post wounding are shown, with wound edges marked at T0 (black solid line) and T15 (white dashed line). ANOVA p<0.001; Bonferoni comparisons ***, p<0.0001 (versus Vehicle) (±S.E.; n=6). Total RNA was extracted from the UMUC3 and T24 cells after treating with either vehicle, 100 nM dexamethasone, or 100 nM Insulin in dialyzed media for 2 hours before harvesting, and miRNA expression was measured by Real-Time PCR (FIG. 8B). *, p<0.05; (Dex versus Veh); $, p<0.05; (Ins versus Veh); ##, p<0.01; ##, p<0.001; (T24 versus UMUC3) (±S.E.; n=6).
Total RNA was extracted from cell cultures using the miRNeasy® Mini Kit (Qiagen). Total RNA was read on a NanoDrop 2000® spectrophotometer (Thermo Fisher Scientific, Wilmington, Del.) and cDNA was synthesized using the miScript RT Kit (Qiagen). […] The miScript Primer Assay® primers were purchased from Qiagen. Normalization was performed in separate reactions with primers to Hs_RNU6-2_11, At_U19_1, and Hs_SNORD61_11.

[16] = 100 nM, 30 minutes, versus vehicle

Substance: GRβ shRNA: pGFP-C-shLenti lentiviral GRβ shRNA (CCAGAAAGCACATCTCACACATTAATCTG) [reference compound]
- knockdown of GRβ expression (reduction) ([1]; stable shRNA lentivirus, versus T24 Scramble): 64%
- migration ([2]; T24 GRβ shRNA cells versus T24 Scramble): significant (ANOVA: p<0.001) decrease
- migration ([3]; E006AA prostate cancer cells, lentiviral shRNA versus scramble): significant reduction

Substance: Sweet-P: PNA TGCCATACACAGTAT [SEQ ID NO:1] attached to an O-linker and modified tat protein VQRKRQKLMP, targeting the miR144 binding site in 3′UTR of human GRβ (all peptide nucleic acid (PNA); O-linker and modified tat peptide attached, position not given here)
- GRβ mRNA expression ([1]; Sweet-P at 1.0 nM, 10 nM, 50 nM, and 100 nM, 48 hours, versus 0 nM): significantly (p<0.05) decreased
- luciferase expression of the pMirTarget 3′ UTR hGRβ construct [4]: significantly (p<0.001) reduced
- GRβ protein expression ([5]; 10 nM Sweet-P, 48 hours): reduced
- GRα protein expression ([6]; 10 nM Sweet-P, 48 hours): no effect
- FKBP51 expression (GRα activity) [7]: enhancing expression
- tumor necrosis factor α (TNFα) expression (GRα activity) [7]: decreasing
- mTOR protein expression [8]: unaffected
- PTEN protein expression [9]: significantly (p<0.0001) increased
- migration (wound width remaining) ([2]; T24 cells, 10 nM Sweet-P for 48 hours prior to wounding): significantly (ANOVA: p<0.001) inhibited
- GRβ expression [10]: blocks
- GRβ expression [11]: blocks
- migration ([3]; E006AA-Par and E006AA-hT cells, Sweet-P): significantly decreased

Substance: insulin: insulin, hormone treatment at 100 nM
- GRβ localization ([5]; 100 nM, 30 minutes): no change
- GRβ expression (immunofluorescence) [5, 16]: significantly increased
- GRα expression (immunofluorescence) [6, 16]: significantly decreased (p<0.001)
- GRβ localization [12]: higher in the nucleus
- GRβ expression (immunofluorescence) ([12]; versus vehicle): significantly increased
- GRα expression (immunofluorescence) [13]: no effect
- expression of miR-33a, miR-144, miR-181a, miR-181b, miR-181c, or miR-181d [14]: did not significantly change
- miR-181a expression [15]: suppress
